In series [1] the test system is Differentiated U937 cells. Nature of the series: (l) Cell viability: MTT assay. It is filed as cell-based, human. The note with it: 1 μg/mL. The procedure:
Differentiated U937 cells are pre-incubated with each test compound (final concentration 1 μg/mL or 10 μg/mL in 200 μL media indicated below) under two protocols: the first for 4 hr in 5% FCS RPMI1640 media and the second in 10% FCS RPMI1640 media for 24 h. The supernatant is replaced with new media (200 μL) and MTT stock solution (10 μL, 5 mg/mL) is added to each well. After incubation for 1 hr the media are removed, DMSO (200 μL) is added to each well and the plates are shaken lightly for 1 hr prior to reading the absorbance at 550 nm. The percentage loss of cell viability is calculated for each well relative to vehicle (0.5% DMSO) treatment. Consequently an apparent increase in cell viability for drug treatment relative to vehicle is tabulated as a negative percentage.

The target of series [2] is p38 MAPKα isoform (MAPK14) (Homo sapiens (Human), UniProt Q16539). Kind of series: p38 MAPKα enzyme inhibition (FRET, Z-LYTE), Method 1. The note with it: Method 1 (Table 4a1). The format is biochemical. The procedure: The enzyme inhibitory activities of compounds disclosed herein are determined by FRET using synthetic peptides labelled with both donor and acceptor fluorophores (Z-LYTE, Invitrogen Ltd., Paisley, UK).
The inhibitory activities of test compounds against the p38 MAPKα isoform (MAPK14: Invitrogen), are evaluated indirectly by determining the level of activation/phosphorylation of the down-stream molecule, MAPKAP-K2. The p38 MAPKα protein (80 ng/mL, 2.5 μL) is mixed with the test compound (2.5 μL of either 4 μg/mL, 0.4 μg/mL, 0.04 μg/mL or 0.004 μg/mL) for 2 hr at RT. […] The mixture is incubated for 1 hr at RT. Development reagent (protease, 5 μL) is added for 1 hr prior to detection in a fluorescence microplate reader (Varioskan® Flash, ThermoFisher Scientific).
In all cases, the site-specific protease cleaves non-phosphorylated peptide only and eliminates the FRET signal. Phosphorylation levels of each reaction are calculated using the ratio of coumarin emission (donor) over fluorescein emission (acceptor), for which high ratios indicate high phosphorylation and low ratios indicate low phosphorylation levels.

Each structure is given as a SMILES string.

Sequence of p38 MAPKα isoform (MAPK14) (Q16539 whole entry, canonical isoform): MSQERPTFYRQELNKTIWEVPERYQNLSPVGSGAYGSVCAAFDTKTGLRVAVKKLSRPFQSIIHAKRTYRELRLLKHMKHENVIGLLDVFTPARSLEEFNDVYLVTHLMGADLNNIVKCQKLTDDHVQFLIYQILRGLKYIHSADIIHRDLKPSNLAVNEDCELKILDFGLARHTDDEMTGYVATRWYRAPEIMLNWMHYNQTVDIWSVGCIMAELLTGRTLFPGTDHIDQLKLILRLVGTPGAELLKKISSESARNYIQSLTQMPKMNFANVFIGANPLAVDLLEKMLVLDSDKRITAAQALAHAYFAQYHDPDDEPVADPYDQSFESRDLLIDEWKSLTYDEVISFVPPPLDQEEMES

In the case of `Cc1ccc(-n2nc(C(C)(C)C)cc2NC(=O)Nc2ccc(Oc3ccnc(Nc4cccc(C(=O)NCCN5CCOCC5)c4)n3)c3ccccc23)cc1` [Example 3, 3-((4-((4-(3-(3-(tert-Butyl)-1-(p-tolyl)-1H-pyrazol-5-yl)ureido)naphthalen-1-yl)oxy)pyrimidin-2-yl)amino)-N-(2-morpholinoethyl)benzamide], in series [1], the “Cell viability at time point in d-U937 cells 4 h” value was “−ve (−ve and +ve indicate that the value is below and above respectively, the no significant effect threshold, defined as 30% inhibition at 1 μg/mL at the time point indicated.)”; the “Cell viability at time point in d-U937 cells 24 h” value was “−ve (−ve and +ve indicate that the value is below and above respectively, the no significant effect threshold, defined as 30% inhibition at 1 μg/mL at the time point indicated.)”. Further, the IC50 in series [2] amounted to 0.007 µM.
For the compound `COc1ccc(C(=O)NCCO)cc1Nc1nccc(Oc2ccc(NC(=O)Nc3cc(C(C)(C)C)nn3-c3ccc(C)cc3)c3ccccc23)n1` [Example 33, 3-((4-((4-(3-(3-(tert-butyl)-1-(p-tolyl)-1H-pyrazol-5-yl)ureido)naphthalen-1-yl)oxy)pyrimidin-2-yl)amino)-N-(2-hydroxyethyl)-4-methoxybenzamide], in series [1], the “Cell viability at time point in d-U937 cells 4 h” value was “−ve (−ve and +ve indicate that the value is below and above respectively, the no significant effect threshold, defined as 30% inhibition at 1 μg/mL at the time point indicated.)”; the “Cell viability at time point in d-U937 cells 24 h” value was “−ve (−ve and +ve indicate that the value is below and above respectively, the no significant effect threshold, defined as 30% inhibition at 1 μg/mL at the time point indicated.)”. In addition, half-maximal inhibition in series [2] (IC50) required 0.004 µM.
In the case of `COc1cc(Nc2nccc(Oc3ccc(NC(=O)Nc4cc(C(C)C)nn4-c4ccc(OC)nc4)c4ccccc34)n2)cc(C(=O)NCCN2CCOCC2)c1` [Example 10, 3-((4-((4-(3-(3-Isopropyl-1-(6-methoxypyridin-3-yl)-1H-pyrazol-5-yl)ureido)naphthalen-1-yl)oxy)pyrimidin-2-yl)amino)-5-methoxy-N-(2-morpholinoethyl)benzamide], in series [1], the “Cell viability at time point in d-U937 cells 4 h” value is “−ve (−ve and +ve indicate that the value is below and above respectively, the no significant effect threshold, defined as 30% inhibition at 1 μg/mL at the time point indicated.)”; the “Cell viability at time point in d-U937 cells 24 h” value was “−ve (−ve and +ve indicate that the value is below and above respectively, the no significant effect threshold, defined as 30% inhibition at 1 μg/mL at the time point indicated.)”. In series [2], this compound registered an IC50 of 0.006 µM.
Take `COc1cc(Nc2nccc(Oc3ccc(NC(=O)Nc4cc(C(C)C)nn4-c4ccc(C)cc4)c4ccccc34)n2)cc(C(=O)N2CCOCC2)c1` [Example 12, 1-(3-Isopropyl-1-(p-tolyl)-1H-pyrazol-5-yl)-3-(4-((2-((3-methoxy-5-(morpholine-4-carbonyl)phenyl)amino)pyrimidin-4-yl)oxy)naphthalen-1-yl)urea]: in series [1], the “Cell viability at time point in d-U937 cells 4 h” value was “−ve (−ve and +ve indicate that the value is below and above respectively, the no significant effect threshold, defined as 30% inhibition at 1 μg/mL at the time point indicated.)”; the “Cell viability at time point in d-U937 cells 24 h” value was “−ve (−ve and +ve indicate that the value is below and above respectively, the no significant effect threshold, defined as 30% inhibition at 1 μg/mL at the time point indicated.)”. In addition, inhibition in series [2] was half-maximal at 0.006 µM (IC50).
Consider `COc1cc(C(=O)NCCN2CCOCC2)ccc1Nc1nccc(Oc2ccc(NC(=O)Nc3cc(C(C)(C)C)nn3-c3ccc(C)cc3)c3ccccc23)n1` [Example 37, 4-((4-((4-(3-(3-(tert-butyl)-1-(p-tolyl)-1H-pyrazol-5-yl)ureido)naphthalen-1-yl)oxy)pyrimidin-2-yl)amino)-3-methoxy-N-(2-morpholinoethyl)benzamide], for which, in series [1], the “Cell viability at time point in d-U937 cells 4 h” value is “−ve (−ve and +ve indicate that the value is below and above respectively, the no significant effect threshold, defined as 30% inhibition at 1 μg/mL at the time point indicated.)”; the “Cell viability at time point in d-U937 cells 24 h” value is “−ve (−ve and +ve indicate that the value is below and above respectively, the no significant effect threshold, defined as 30% inhibition at 1 μg/mL at the time point indicated.)”. In addition, the IC50 in series [2] came out at 0.044 µM.
For the compound `Cc1ccc(-n2nc(C(C)(C)C)cc2NC(=O)Nc2ccc(Oc3ccnc(Nc4cc(C)cc(C(N)=O)c4)n3)c3ccccc23)cc1` [Example 40, 3-((4-((4-(3-(3-(tert-butyl)-1-(p-tolyl)-1H-pyrazol-5-yl)ureido)naphthalen-1-yl)oxy)pyrimidin-2-yl)amino)-5-methylbenzamide], in series [1], the “Cell viability at time point in d-U937 cells 4 h” value was “−ve (−ve and +ve indicate that the value is below and above respectively, the no significant effect threshold, defined as 30% inhibition at 1 μg/mL at the time point indicated.)”; the “Cell viability at time point in d-U937 cells 24 h” value is “−ve (−ve and +ve indicate that the value is below and above respectively, the no significant effect threshold, defined as 30% inhibition at 1 μg/mL at the time point indicated.)”. For the same compound, the IC50 in series [2] amounted to 0.052 µM.
Regarding `COCCNC(=O)c1cc(Nc2nccc(Oc3ccc(NC(=O)Nc4cc(C(C)(C)C)nn4-c4ccc(C)cc4)c4ccccc34)n2)cc(OC)c1` [Example 67, 3-((4-((4-(3-(3-(tert-butyl)-1-(p-tolyl)-1H-pyrazol-5-yl)ureido)naphthalen-1-yl)oxy)pyrimidin-2-yl)amino)-5-methoxy-N-(2-methoxyethyl)benzamide], in series [1], the “Cell viability at time point in d-U937 cells 4 h” value is “−ve (−ve and +ve indicate that the value is below and above respectively, the no significant effect threshold, defined as 30% inhibition at 1 μg/mL at the time point indicated.)”; the “Cell viability at time point in d-U937 cells 24 h” value is “−ve (−ve and +ve indicate that the value is below and above respectively, the no significant effect threshold, defined as 30% inhibition at 1 μg/mL at the time point indicated.)”. In series [2], this compound had an IC50 of 0.024 µM.
In the case of `COc1ccc(-n2nc(C(C)C)cc2NC(=O)Nc2ccc(Oc3ccnc(Nc4cc(Cl)cc(C(=O)NCCN5CCOCC5)c4)n3)c3ccccc23)cc1` [Example 61, 3-chloro-5-((4-((4-(3-(3-isopropyl-1-(4-methoxyphenyl)-1H-pyrazol-5-yl)ureido)naphthalen-1-yl)oxy)pyrimidin-2-yl)amino)-N-(2-morpholinoethyl)benzamide], in series [1], the “Cell viability at time point in d-U937 cells 4 h” value is “−ve (−ve and +ve indicate that the value is below and above respectively, the no significant effect threshold, defined as 30% inhibition at 1 μg/mL at the time point indicated.)”; the “Cell viability at time point in d-U937 cells 24 h” value was “−ve (−ve and +ve indicate that the value is below and above respectively, the no significant effect threshold, defined as 30% inhibition at 1 μg/mL at the time point indicated.)”. This compound also came in with an IC50 in series [2] of 0.02 µM.
`Cc1ccc(-n2nc(C(C)(C)C)cc2NC(=O)Nc2ccc(Oc3ccnc(Nc4cccc(C(=O)N5CCOCC5)c4)n3)c3ccccc23)cc1` [Example 27, 1-(3-(tert-butyl)-1-(p-tolyl)-1H-pyrazol-5-yl)-3-(4-((2-((3-(morpholine-4-carbonyl)phenyl)amino)pyrimidin-4-yl)oxy)naphthalen-1-yl)urea]: in series [1], the “Cell viability at time point in d-U937 cells 4 h” value is “−ve (−ve and +ve indicate that the value is below and above respectively, the no significant effect threshold, defined as 30% inhibition at 1 μg/mL at the time point indicated.)”; the “Cell viability at time point in d-U937 cells 24 h” value is “−ve (−ve and +ve indicate that the value is below and above respectively, the no significant effect threshold, defined as 30% inhibition at 1 μg/mL at the time point indicated.)”. This compound displayed an IC50 in series [2] of 0.017 µM.
For `Cc1ccc(-n2nc(C(C)(C)C)cc2NC(=O)Nc2ccc(Oc3ccnc(Nc4cccc(C(=O)N(C)C)c4)n3)c3ccccc23)cc1` [Example 26, 3-((4-((4-(3-(3-(tert-butyl)-1-(p-tolyl)-1H-pyrazol-5-yl)ureido)naphthalen-1-yl)oxy)pyrimidin-2-yl)amino)-N,N-dimethylbenzamide], in series [1], the “Cell viability at time point in d-U937 cells 4 h” value is “−ve (−ve and +ve indicate that the value is below and above respectively, the no significant effect threshold, defined as 30% inhibition at 1 μg/mL at the time point indicated.)”; the “Cell viability at time point in d-U937 cells 24 h” value was “−ve (−ve and +ve indicate that the value is below and above respectively, the no significant effect threshold, defined as 30% inhibition at 1 μg/mL at the time point indicated.)”. Also, half-maximal inhibition in series [2] (IC50) required 0.012 µM.

These data come from US9701670B2, “Pyrazolyl-ureas as kinase inhibitors” (RESPIVERT LIMITED, priority 2013, dated 2017).
